Data: PubChem BioAssay AID256 (DTP/NCI, 2004)
Toxic doses and inconclusive results are not listed. How the source made its calls: active means survival T/C of 150% or more; inactive means T/C below 125% in these data.

Test system: CD2F1 mice, L1210 leukemia ip, survival T/C
Test: NCI In Vivo Anticancer Drug Screen. Data for tumor model L1210 Leukemia (intraperitoneal) in CD2F1 (CDF1) mice
Settings: higher = longer survival
In short: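 Activity against a transplanted murine tumor was judged by comparing the compound group with a vehicle group. The outcome in the treated animals was divided by that in the controls.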

[1] = endpoint: mean survival time, dose: 100.0 mg/kg/injection, schedule: Q04DX003 (ip), vehicle: saline with Tween-80
[2] = endpoint: mean survival time, dose: 200.0 mg/kg/injection, schedule: Q04DX003 (ip), vehicle: saline with Tween-80
[3] = endpoint: mean survival time, dose: 400.0 mg/kg/injection, schedule: Q04DX003 (ip), vehicle: saline with Tween-80
[4] = endpoint: mean survival time, dose: 75.0 mg/kg/injection, schedule: Q01DX001 (ip), vehicle: saline
[5] = endpoint: mean survival time, dose: 25.0 mg/kg/injection, schedule: Q01DX009 (ip), vehicle: saline with Tween-80
[6] = endpoint: mean survival time, dose: 50.0 mg/kg/injection, schedule: Q01DX009 (ip), vehicle: saline with Tween-80
[7] = endpoint: mean survival time, dose: 100.0 mg/kg/injection, schedule: Q01DX009 (ip), vehicle: Klucel (hydroxypropylcellulose) (HPC)
[8] = endpoint: mean survival time, dose: 100.0 mg/kg/injection, schedule: Q01DX009 (ip), vehicle: saline with Tween-80
[9] = endpoint: mean survival time, dose: 200.0 mg/kg/injection, schedule: Q01DX009 (ip), vehicle: saline with Tween-80
[10] = endpoint: mean survival time, dose: 400.0 mg/kg/injection, schedule: Q01DX009 (ip), vehicle: saline with Tween-80
[11] = endpoint: mean survival time, dose: 100.0 mg/kg/injection, schedule: Q01DX001 (ip), vehicle: saline with Tween-80
[12] = endpoint: mean survival time, dose: 200.0 mg/kg/injection, schedule: Q01DX001 (ip), vehicle: saline with Tween-80
[13] = endpoint: mean survival time, dose: 400.0 mg/kg/injection, schedule: Q01DX001 (ip), vehicle: saline with Tween-80

Measured: T/C

ClCCN(CCCl)c1ccc(CNCCCNCc2ccc(N(CCCl)CCCl)cc2)cc1
inactive: endpoint: mean survival time, dose: 1.25 mg/kg/injection, schedule: Q01DX009 (ip), vehicle: saline sonified 118 % of control | endpoint: mean survival time, dose: 2.5 mg/kg/injection, schedule: Q01DX009 (ip), vehicle: saline sonified 118 % of control | endpoint: mean survival time, dose: 3.3 mg/kg/injection, schedule: Q01DX009 (ip), vehicle: saline sonified 117 % of control | endpoint: mean survival time, dose: 5.0 mg/kg/injection, schedule: Q01DX009 (ip), vehicle: saline sonified 117 % of control | endpoint: mean survival time, dose: 7.5 mg/kg/injection, schedule: Q01DX009 (ip), vehicle: saline sonified 121 % of control | endpoint: mean survival time, dose: 10.0 mg/kg/injection, schedule: Q04DX003 (ip), vehicle: saline with Tween-80 120 % of control | endpoint: mean survival time, dose: 20.0 mg/kg/injection, schedule: Q04DX003 (ip), vehicle: saline with Tween-80 121 % of control | endpoint: mean survival time, dose: 40.0 mg/kg/injection, schedule: Q04DX003 (ip), vehicle: saline with Tween-80 120 % of control

COc1ccc(O)c(C=O)c1
inactive: [1] 100 % of control | [2] 110 % of control | [3] 95 % of control

Cc1ccn2c(=O)c(CCBr)c(C)nc2c1
inactive: [4] 96 % of control

Cc1nn(CCO)c(C)c1N=[N+]([O-])c1c(C)nn(CCO)c1C
inactive: endpoint: mean survival time, dose: 3.12 mg/kg/injection, schedule: Q01DX009 (ip), vehicle: Klucel (hydroxypropylcellulose) (HPC) 102 % of control | endpoint: mean survival time, dose: 3.12 mg/kg/injection, schedule: Q01DX009 (ip), vehicle: saline with Tween-80 98 % of control | endpoint: mean survival time, dose: 6.25 mg/kg/injection, schedule: Q01DX009 (ip), vehicle: Klucel (hydroxypropylcellulose) (HPC) 95 % of control | endpoint: mean survival time, dose: 6.25 mg/kg/injection, schedule: Q01DX009 (ip), vehicle: saline with Tween-80 103 % of control | endpoint: mean survival time, dose: 12.5 mg/kg/injection, schedule: Q01DX009 (ip), vehicle: Klucel (hydroxypropylcellulose) (HPC) 96 % of control | endpoint: mean survival time, dose: 12.5 mg/kg/injection, schedule: Q01DX009 (ip), vehicle: saline with Tween-80 104 % of control | endpoint: mean survival time, dose: 25.0 mg/kg/injection, schedule: Q01DX009 (ip), vehicle: Klucel (hydroxypropylcellulose) (HPC) 95 % of control | [5] 106 % of control | endpoint: mean survival time, dose: 50.0 mg/kg/injection, schedule: Q01DX009 (ip), vehicle: Klucel (hydroxypropylcellulose) (HPC) 101 % of control | [6] 103 % of control | endpoint: mean survival time, dose: 50.0 mg/kg/injection, schedule: Q04DX003 (ip), vehicle: Klucel (hydroxypropylcellulose) (HPC) 113 % of control | [7] 95 % of control | endpoint: mean survival time, dose: 100.0 mg/kg/injection, schedule: Q04DX003 (ip), vehicle: Klucel (hydroxypropylcellulose) (HPC) 117 % of control

CCC1(O)C(=O)OCc2c1cc1n(c2=O)Cc2cc3ccc(C(=O)OC)cc3nc2-1 (stereo unspecified)
inactive: endpoint: median survival time, dose: 10.0 mg/kg/injection, schedule: Q04DX002 (ip), vehicle: saline with Tween-80 107 % of control | endpoint: median survival time, dose: 20.0 mg/kg/injection, schedule: Q04DX002 (ip), vehicle: saline with Tween-80 100 % of control | endpoint: median survival time, dose: 40.0 mg/kg/injection, schedule: Q04DX002 (ip), vehicle: saline with Tween-80 106 % of control | endpoint: median survival time, dose: 80.0 mg/kg/injection, schedule: Q04DX002 (ip), vehicle: saline with Tween-80 107 % of control

CN(C)Nc1cc(N)c(N=Nc2ccccc2)c(=O)[nH]1
inactive: endpoint: mean survival time, dose: 100.0 mg/kg/injection, schedule: Q01DX001 (ip), vehicle: Klucel (hydroxypropylcellulose) (HPC) 107 % of control | endpoint: mean survival time, dose: 200.0 mg/kg/injection, schedule: Q01DX001 (ip), vehicle: Klucel (hydroxypropylcellulose) (HPC) 97 % of control | endpoint: mean survival time, dose: 400.0 mg/kg/injection, schedule: Q01DX001 (ip), vehicle: Klucel (hydroxypropylcellulose) (HPC) 117 % of control

C=CCCCCn1c2ccccc2c2c(C)c3cnccc3c(C)c21
inactive: [8] 102 % of control | [9] 102 % of control | [10] 97 % of control

CC1CCC(C)(C)CC1(C)c1cc(CN(C)C)c(O)c(CN(C)C)c1 (stereo unspecified)
inactive: endpoint: mean survival time, dose: 12.5 mg/kg/injection, schedule: Q01DX009 (ip), vehicle: acetone 95 % of control | endpoint: mean survival time, dose: 25.0 mg/kg/injection, schedule: Q01DX009 (ip), vehicle: acetone 98 % of control | endpoint: mean survival time, dose: 50.0 mg/kg/injection, schedule: Q01DX009 (ip), vehicle: acetone 98 % of control

C/C(CCC(CC(=O)O)C(C)C)=N\NC(N)=O (stereo unspecified)
inactive: [1] 97 % of control | [2] 97 % of control | [3] 103 % of control

COc1cc2c(cc1OC)-c1ccc3cc4c(cc3c1N(C)C2)OCO4
inactive: endpoint: mean survival time, dose: 5.0 mg/kg/injection, schedule: Q01DX009 (ip), vehicle: water 106 % of control | endpoint: mean survival time, dose: 10.0 mg/kg/injection, schedule: Q01DX009 (ip), vehicle: water 105 % of control | endpoint: mean survival time, dose: 20.0 mg/kg/injection, schedule: Q01DX009 (ip), vehicle: water 105 % of control | endpoint: mean survival time, dose: 40.0 mg/kg/injection, schedule: Q01DX009 (ip), vehicle: water 108 % of control | endpoint: mean survival time, dose: 80.0 mg/kg/injection, schedule: Q01DX009 (ip), vehicle: water 103 % of control

COC(c1ccccc1)C(C)O (stereo unspecified)
inactive: [6] 100 % of control | [8] 100 % of control | [9] 95 % of control

Brc1ccc2[nH]c3c(c2c1)CSc1ccccc1-3
inactive: [7] 104 % of control | endpoint: mean survival time, dose: 200.0 mg/kg/injection, schedule: Q01DX009 (ip), vehicle: Klucel (hydroxypropylcellulose) (HPC) 108 % of control | endpoint: mean survival time, dose: 400.0 mg/kg/injection, schedule: Q01DX009 (ip), vehicle: Klucel (hydroxypropylcellulose) (HPC) 112 % of control

O=C(O)CCCCCCCCCO
inactive: [11] 91 % of control | [12] 87 % of control | [13] 86 % of control

O=C1c2ccccc2C(=O)c2c1ccc(O)c2O
inactive: [8] 97 % of control | [1] 102 % of control | [9] 97 % of control | [2] 100 % of control | [10] 90 % of control | [3] 100 % of control

NC(N)=Nc1ccc(C(=O)Oc2ccc([N+](=O)[O-])cc2)cc1
inactive: [8] 112 % of control | [9] 102 % of control

O=C1C(Cl)=C(c2ccccc2)C(OC2(c3ccccc3)C(Cl)C(=O)C(Cl)C2c2ccccc2)(c2ccccc2)C1Cl (stereo unspecified)
inactive: endpoint: mean survival time, dose: 100.0 mg/kg/injection, schedule: Q04DX002 (ip), vehicle: saline with Tween-80 96 % of control | endpoint: mean survival time, dose: 200.0 mg/kg/injection, schedule: Q04DX002 (ip), vehicle: saline with Tween-80 101 % of control | endpoint: mean survival time, dose: 400.0 mg/kg/injection, schedule: Q04DX002 (ip), vehicle: saline with Tween-80 96 % of control

OCC1OC(n2ccc3c(NO)ncnc32)C(O)C1O (stereo unspecified)
inactive: endpoint: mean survival time, dose: 5.0 mg/kg/injection, schedule: Q01DX001 (ip), vehicle: saline 111 % of control | endpoint: mean survival time, dose: 10.0 mg/kg/injection, schedule: Q01DX001 (ip), vehicle: saline 118 % of control

O=C1NC(=O)C2(CCN(CC3COc4ccccc4O3)CC2)N1c1ccccc1 (stereo unspecified)
inactive: endpoint: mean survival time, dose: 50.0 mg/kg/injection, schedule: Q01DX001 (ip), vehicle: saline with Tween-80 96 % of control | [11] 101 % of control | [12] 96 % of control

CCc1ccc2ccccc2c1[N+](=O)[O-]
inactive: [11] 105 % of control | [12] 94 % of control | [13] 98 % of control

C[n+]1ccc2c(Br)cccc2c1
inactive: [4] 101 % of control

CCOc1ccc(Br)cc1/C=N/NS(=O)(=O)c1ccc(C)cc1
inactive: [5] 111 % of control | [6] 114 % of control | [8] 113 % of control

O=C(CC(O)(C(F)(F)F)C(F)(F)F)c1ccc(Cl)c2ccccc12
inactive: endpoint: mean survival time, dose: 100.0 mg/kg/injection, schedule: Q01DX001 (ip), vehicle: other 102 % of control | endpoint: mean survival time, dose: 200.0 mg/kg/injection, schedule: Q01DX001 (ip), vehicle: other 100 % of control | endpoint: mean survival time, dose: 400.0 mg/kg/injection, schedule: Q01DX001 (ip), vehicle: other 96 % of control
